Holding throughout (test): relative viability (nuclei count vs DMSO), 5 days (fraction); higher = more cells survive
Compound in experiment [1]: O=S(=O)(c1ccccc1)N(CC(F)(F)F)c1ccc(C(O)(C(F)(F)F)C(F)(F)F)cc1 + CS(=O)(=O)CCNCc1ccc(-c2ccc3ncnc(Nc4ccc(OCc5cccc(F)c5)c(Cl)c4)c3c2)o1 [Lapatinib] (partner 2 µM)
An outline of the steps: (§1)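 A single step with final 0.05% Triton X-100, 1% formaldehyde and 1 ug/ml Hoechst fixed the cells and stained nuclei 5 days after treatment. Lung cancer cell lines in 1536-well plates had been treated by pin tool the day after seeding with one drug alone or a fixed anchor-drug dose plus five library-drug doses (not always all listed) in √10 steps, and nuclei were counted on 4× images. Relative viability is the ratio of nuclei in treated wells to nuclei in vehicle wells, taken as the median of duplicate plates.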

Compound in experiment [2]: O=S(=O)(c1ccccc1)N(CC(F)(F)F)c1ccc(C(O)(C(F)(F)F)C(F)(F)F)cc1 + CC1(C)CCC(c2ccc(Cl)cc2)=C(CN2CCN(c3ccc(C(=O)NS(=O)(=O)c4ccc(N[C@H](CCN5CCOCC5)CSc5ccccc5)c(S(=O)(=O)C(F)(F)F)c4)cc3)CC2)C1 [Navitoclax] (partner 0.5 µM)
The essentials: as §1

Compound in experiment [3]: O=S(=O)(c1ccccc1)N(CC(F)(F)F)c1ccc(C(O)(C(F)(F)F)C(F)(F)F)cc1 + O=C(CCCCCCC(=O)Nc1ccccc1)NO [Vorinostat] (partner 1 µM)
The essentials:
as §1

Compound in the experiment “RO-3306 + Decitabine”: C1=CC2=C(C=CC(=C2)C=C3C(=O)NC(=NCC4=CC=CS4)S3)N=C1 [RO-3306] + Nc1ncn([C@H]2C[C@H](O)[C@@H](CO)O2)c(=O)n1 [Decitabine] (partner 2 µM)
An outline of the steps:
as §1

Compound in the experiment “RO-3306 + Dasatinib”: C1=CC2=C(C=CC(=C2)C=C3C(=O)NC(=NCC4=CC=CS4)S3)N=C1 [RO-3306] + Cc1nc(Nc2ncc(C(=O)Nc3c(C)cccc3Cl)s2)cc(N2CCN(CCO)CC2)n1 [Dasatinib] (partner 0.075 µM)
The essentials:
as §1

For the cell line COR-L23, the relative viability in experiment [1] (first compound 0.8 µM) turned out to be 1.24; in experiment [1] (first compound 2.53 µM) it was 0.872; in experiment [1] (first compound 8 µM) it was 0.913; in experiment [2] (first compound 0.8 µM) it was 1.14; in experiment [2] (first compound 2.53 µM) it was 1.03; in experiment [2] (first compound 8 µM) it was 0.913. Moreover, the relative viability in experiment [3] (first compound 0.8 µM) was 0.522; in experiment [3] (first compound 2.53 µM), 0.543; in experiment [3] (first compound 8 µM) it was 0.423; with RO-3306 + Decitabine (first compound 0.01 µM), 0.342; with RO-3306 + Decitabine (first compound 0.03162 µM), 0.405; with RO-3306 + Decitabine (first compound 0.1 µM) it was 0.487. Moreover, the relative viability is 0.446 with RO-3306 + Decitabine (first compound 0.3162 µM); 0.394 with RO-3306 + Decitabine (first compound 1 µM); 0.477 with RO-3306 + Dasatinib (first compound 0.01 µM); 0.392 with RO-3306 + Dasatinib (first compound 0.03162 µM); 0.48 with RO-3306 + Dasatinib (first compound 0.1 µM); 0.642 with RO-3306 + Dasatinib (first compound 0.3162 µM). Moreover, the relative viability in the experiment with RO-3306 + Dasatinib (first compound 1 µM) turned out to be 0.374.

For LCLC-97TM1, the relative viability in experiment [1] (first compound 0.8 µM) was 1.09; in experiment [1] (first compound 2.53 µM) it was 0.653; in experiment [1] (first compound 8 µM) it was 0.71; in experiment [2] (first compound 0.8 µM), 0.535; in experiment [2] (first compound 2.53 µM), 0.368; in experiment [2] (first compound 8 µM), 0.344. Also, the relative viability in experiment [3] (first compound 2.53 µM) is 0.562; in experiment [3] (first compound 8 µM) it was 0.567; with RO-3306 + Decitabine (first compound 0.01 µM), 0.203; with RO-3306 + Decitabine (first compound 0.03162 µM), 0.223; in the experiment with RO-3306 + Decitabine (first compound 0.1 µM), 0.196; in the experiment with RO-3306 + Decitabine (first compound 0.3162 µM), 0.229. The relative viability in the experiment with RO-3306 + Decitabine (first compound 1 µM) came out at 0.266; with RO-3306 + Dasatinib (first compound 0.01 µM) it was 0.792; with RO-3306 + Dasatinib (first compound 0.03162 µM), 0.714; with RO-3306 + Dasatinib (first compound 0.1 µM) it was 0.929; in the experiment with RO-3306 + Dasatinib (first compound 0.3162 µM), 0.779; with RO-3306 + Dasatinib (first compound 1 µM) it was 0.859.

On to PC-14, for which the relative viability is 0.26 in experiment [1] (first compound 0.8 µM); 0.191 in experiment [1] (first compound 2.53 µM); 0.223 in experiment [1] (first compound 8 µM); 1.14 in experiment [2] (first compound 0.8 µM); 1.11 in experiment [2] (first compound 2.53 µM); 0.412 in experiment [2] (first compound 8 µM). Moreover, the relative viability in experiment [3] (first compound 0.8 µM) was determined as 0.63; in experiment [3] (first compound 2.53 µM) it was 0.857; in experiment [3] (first compound 8 µM) it was 0.656; with RO-3306 + Decitabine (first compound 0.01 µM) it was 0.196; in the experiment with RO-3306 + Decitabine (first compound 0.03162 µM) it was 0.209; with RO-3306 + Decitabine (first compound 0.1 µM) it was 0.222. Besides, the relative viability with RO-3306 + Decitabine (first compound 0.3162 µM) came to 0.277; in the experiment with RO-3306 + Decitabine (first compound 1 µM), 0.244; in the experiment with RO-3306 + Dasatinib (first compound 0.01 µM) it was 0.239; in the experiment with RO-3306 + Dasatinib (first compound 0.03162 µM) it was 0.359; with RO-3306 + Dasatinib (first compound 0.1 µM), 0.232; with RO-3306 + Dasatinib (first compound 0.3162 µM), 0.243. Further, the relative viability in the experiment with RO-3306 + Dasatinib (first compound 1 µM) is 0.212.

Take NCI-H1651: the relative viability in experiment [1] (first compound 0.8 µM) is 0.9; in experiment [1] (first compound 2.53 µM) it was 0.821; in experiment [1] (first compound 8 µM), 0.847; in experiment [2] (first compound 0.8 µM), 1.15; in experiment [2] (first compound 2.53 µM), 0.939; in experiment [2] (first compound 8 µM), 1.02. For the same cell line, the relative viability is 0.626 in experiment [3] (first compound 0.8 µM); 0.547 in experiment [3] (first compound 2.53 µM); 0.525 in experiment [3] (first compound 8 µM); 0.671 with RO-3306 + Decitabine (first compound 0.01 µM); 0.562 with RO-3306 + Decitabine (first compound 0.03162 µM); 0.587 in the experiment with RO-3306 + Decitabine (first compound 0.1 µM). Further, the relative viability with RO-3306 + Decitabine (first compound 0.3162 µM) stood at 0.664; with RO-3306 + Decitabine (first compound 1 µM) it was 0.58; with RO-3306 + Dasatinib (first compound 0.01 µM) it was 0.383; in the experiment with RO-3306 + Dasatinib (first compound 0.03162 µM), 0.329; with RO-3306 + Dasatinib (first compound 0.1 µM), 0.382; in the experiment with RO-3306 + Dasatinib (first compound 0.3162 µM), 0.418. Also, the relative viability in the experiment with RO-3306 + Dasatinib (first compound 1 µM) came to 0.354.

Turning to HCC-15, the relative viability in experiment [1] (first compound 0.8 µM) worked out at 0.933; in experiment [1] (first compound 2.53 µM), 0.866; in experiment [1] (first compound 8 µM) it was 0.748; in experiment [2] (first compound 0.8 µM), 0.639; in experiment [2] (first compound 2.53 µM), 0.593; in experiment [2] (first compound 8 µM), 0.619. For the same cell line, the relative viability was 0.748 in experiment [3] (first compound 0.8 µM); 0.682 in experiment [3] (first compound 2.53 µM); 0.63 in experiment [3] (first compound 8 µM); 0.606 with RO-3306 + Decitabine (first compound 0.01 µM); 0.547 with RO-3306 + Decitabine (first compound 0.03162 µM); 0.563 in the experiment with RO-3306 + Decitabine (first compound 0.1 µM). Also, the relative viability with RO-3306 + Decitabine (first compound 0.3162 µM) amounted to 0.662; with RO-3306 + Decitabine (first compound 1 µM), 0.552; with RO-3306 + Dasatinib (first compound 0.01 µM), 0.594; with RO-3306 + Dasatinib (first compound 0.03162 µM) it was 0.554; with RO-3306 + Dasatinib (first compound 0.1 µM) it was 0.59; in the experiment with RO-3306 + Dasatinib (first compound 0.3162 µM), 0.534. Further, the relative viability with RO-3306 + Dasatinib (first compound 1 µM) was found to be 0.574.

For NCI-H1755, the relative viability in experiment [1] (first compound 0.8 µM) worked out at 1.15; in experiment [1] (first compound 2.53 µM) it was 0.797; in experiment [1] (first compound 8 µM), 1; in experiment [2] (first compound 0.8 µM) it was 1.01; in experiment [2] (first compound 2.53 µM), 0.909; in experiment [2] (first compound 8 µM) it was 0.924. Besides, the relative viability in experiment [3] (first compound 0.8 µM) is 0.907; in experiment [3] (first compound 2.53 µM), 0.679; in experiment [3] (first compound 8 µM), 0.592; in the experiment with RO-3306 + Decitabine (first compound 0.01 µM), 0.73; in the experiment with RO-3306 + Decitabine (first compound 0.03162 µM) it was 0.739; with RO-3306 + Decitabine (first compound 0.1 µM) it was 0.728. For the same cell line, the relative viability with RO-3306 + Decitabine (first compound 0.3162 µM) stood at 0.706; in the experiment with RO-3306 + Decitabine (first compound 1 µM), 0.707; in the experiment with RO-3306 + Dasatinib (first compound 0.01 µM) it was 0.46; in the experiment with RO-3306 + Dasatinib (first compound 0.03162 µM), 0.417; with RO-3306 + Dasatinib (first compound 0.1 µM), 0.441; in the experiment with RO-3306 + Dasatinib (first compound 0.3162 µM) it was 0.366. The relative viability in the experiment with RO-3306 + Dasatinib (first compound 1 µM) turned out to be 0.411.
